Source: patent US20150218654A1, “METHODS FOR PREDICTING MULTIPLE MYELOMA TREATMENT RESPONSE” (INSERM (INSTITUT NATIONAL DE LA SANTÉ ET DE LA RE- CHERCHE …, priority 2012, published 2015)
Where “and” joins values, the source holds several entries; their conditions need not be identical. Identical values can stand only once.

Legend:
Type in all cases: cell-based, human
HMCLs = assay: Cell viability of HMCLs by trypan blue exclusion; details: five HMCLs, 0.5 μM for 7 days
Procedure: (§1) The human MM cell lines XG-5, XG-6, XG-7, XG-20 and LP1 were grown in RPMI 1640 supplemented with 10% fetal bovine serum and 2 ng/ml recombinant IL-6. Cells (2×10^5/mL) were treated either with 0.5 μmol/L 5-Aza-2′-deoxycytidine (decitabine) (Sigma, St. Louis, Mo.) for 7 days.

[1] = Cell viability of HMCLs by trypan blue exclusion; details: human; for viability at 3 days, 0.5 μM: Day 3, mean ± SD; for viability at 7 days, 0.5 μM: Day 7, mean ± SD
Procedure: as §1

[2] = test system: primary myeloma cells of patients (CD138+ viable plasma cells); assay: Mononuclear cell culture of patients' tumor samples, count of viable CD138+ myeloma cells by flow cytometry
Procedure: Mononuclear cells from tumor samples of 12 patients with MM were cultured for 4 days in the presence of IL-6 (2 ng/ml) with or without graded decitabine concentrations. At day 4 of culture, the cell count and the viability were determined and the percentage of CD138^+ viable plasma cells was determined by flow cytometry. Black color represents patients with high DM Score (N=6) and white represents patients with low DM Score values (N=6).
Mononuclear cells from tumor samples of 14 patients with MM were cultured for 4 days in the presence of IL-6 (2 ng/ml) with or without graded 5-azacitidine concentrations. At day 4 of culture, the count of viable CD138′ MMCs was determined using flow cytometry. The black columns represent the mean±SD of primary myeloma cell counts (expressed as the percentage of the count without adding 5-azcytidine) of the 7 patients with a low DM Score and the white columns that of the 7 patients with a high DM Score.
Mononuclear cells from tumor samples of 12 patients with MM (agreement of the Center for Biological Resources of Montpellier University Hospital (N° DC-2008-417)) were cultured for 4 days at 2×10^5 cells/ml in RPMI 1640 medium, 10% FCS, 2 ng/ml IL-6, with or without graded concentrations of decitabine. In each culture group, viability and cell counts were assayed and MMCs were stained with an anti-CD138-PE mAb (Immunotech, Marseille, France) as previously described (32).
Primary myeloma cells of 14 patients were cultured with or without graded concentrations of 5-azacitidine and MMC cytotoxicity evaluated using anti-CD138-PE mAb (Immunotech, Marseille, France) as described (Jourdan, et al 1998; Mahtouk, et al 2004; Moreaux, et al 2012).

[3] = LP1 multiple myeloma cells, LP1, 0.5 μM decitabine
[4] = XG-5 multiple myeloma cells, XG-5, 0.5 μM decitabine
[5] = XG-6 multiple myeloma cells, XG-6, 0.5 μM decitabine
[6] = XG-7 multiple myeloma cells, XG-7, 0.5 μM decitabine
[7] = XG-20 multiple myeloma cells, XG-20, 0.5 μM decitabine

With `Nc1ncn([C@H]2C[C@H](O)[C@@H](CO)O2)c(=O)n1` [decitabine, 5-Aza-2′-deoxycytidine] the “effect on myeloma cell viability” value (HMCLs) was “did not affect myeloma cell viability”, the viability at 3 days, 0.5 μM [1, 3] was 91 ± 2% and the viability at 7 days, 0.5 μM [1, 3] was 86 ± 4%. It also gave a viability at 3 days, 0.5 μM [1, 4] of 65 ± 5%, a viability at 7 days, 0.5 μM [1, 4] of 69 ± 6% and a viability at 3 days, 0.5 μM [1, 5] of 90 ± 1%. It also gave a viability at 7 days, 0.5 μM [1, 5] of 90 ± 1%, a viability at 3 days, 0.5 μM [1, 6] of 90 ± 2% and a viability at 7 days, 0.5 μM [1, 6] of 85 ± 5%. The viability at 3 days, 0.5 μM [1, 7] was 91 ± 3%, the viability at 7 days, 0.5 μM [1, 7] was 83 ± 5% and the “Myeloma cell number/culture well, Mean” value ([2]; 0.125 μM decitabine, day 4, mean of 6 patients with high DM Score) was 54391. The “Myeloma cell number/culture well, Mean” value ([2]; 0.125 μM decitabine, day 4, mean of 6 patients with low DM Score) was 43748, the “Myeloma cell number/culture well” value ([2]; 0.125 μM decitabine, day 4, single patients with high DM Score) was 43320 and 49096 and 40432 and 63536 and 69312 and 60648 and the “Myeloma cell number/culture well” value ([2]; 0.125 μM decitabine, day 4, single patients with low DM Score) was 26100 and 51984 and 77976 and 54336 and 1066 and 51024. For the same molecule, the “Myeloma cell number/culture well, Mean” value ([2]; 0.5 μM decitabine, day 4, mean of 6 patients with high DM Score) was 38622, the “Myeloma cell number/culture well, Mean” value ([2]; 0.5 μM decitabine, day 4, mean of 6 patients with low DM Score) was 38834 and the “Myeloma cell number/culture well” value ([2]; 0.5 μM decitabine, day 4, single patients with high DM Score) was 36738 (2×) and 31086 and 28260 and 56520 and 42390. The “Myeloma cell number/culture well” value ([2]; 0.5 μM decitabine, day 4, single patients with low DM Score) was 27195 and 45216 and 53694 and 51300 and 870 and 54726, the “Myeloma cell number/culture well, Mean” value ([2]; 2 μM decitabine, day 4, mean of 6 patients with high DM Score) was 24024 and the “Myeloma cell number/culture well, Mean” value ([2]; 2 μM decitabine, day 4, mean of 6 patients with low DM Score) was 30672. The “Myeloma cell number/culture well” value ([2]; 2 μM decitabine, day 4, single patients with high DM Score) was 20592 (2×) and 22880 and 18304 and 29744 and 32032, the “Myeloma cell number/culture well” value ([2]; 2 μM decitabine, day 4, single patients with low DM Score) was 21028 and 32032 and 22880 and 51230 and 1044 and 55818 and the “Myeloma cell number/culture well, Mean” value ([2]; 8 μM decitabine, day 4, mean of 6 patients with high DM Score) was 12808. For the same molecule, the “Myeloma cell number/culture well, Mean” value ([2]; 8 μM decitabine, day 4, mean of 6 patients with low DM Score) was 26080, the “Myeloma cell number/culture well” value ([2]; 8 μM decitabine, day 4, single patients with high DM Score) was 5800 and 11600 and 10150 and 18850 and 17400 and 13050 and the “Myeloma cell number/culture well” value ([2]; 8 μM decitabine, day 4, single patients with low DM Score) was 18265 and 21750 and 14500 and 53486 and 1039 and 47440. For the same molecule, the “fold higher decitabine sensitivity” value ([2]; primary MMCs with DM Score above median (−19.7) versus below median, P<0.01) was 2.2 fold.
